Source: patent publication US20240352013A1, “BICYCLIC FUSED PYRAZOLE DERIVATIVES FOR THE TREATMENT OF RESPIRATORY INFECTIONS INCLUDING RSV” (GEORGIA STATE UNIVERSITY RESEARCH FOUNDATION, INC., priority 2021, published 2024)
Where two headings read alike, the source gives them in different places.

Tests used:
[1] = test system: HEp-2 cells; test: Cytotoxicity assay (PrestoBlue) in HEp-2 cells; type: cell-based, human; details: for cytotoxicity: FIG. 24; for CC50: HEp-2 cells, 48-hour incubation, max concentration tested
Procedure: (§1) To determine the effect of compound on cell metabolism, HEp-2 cells were seeded at 50% confluence in 96-well plates and were incubated with 3-fold serial dilution of compound from 5 or 50 μM as described, including positive and negative controls for normalization. After 48-hour incubation at 37° C., cells were incubated with PrestoBlue (ThermoFisher Scientific) for 1 hour at 37° C. and fluorescence measured with a H1 synergy plate reader (Biotek).
(§2) After 48-hour incubation at 37° C., cells were incubated with PrestoBlue (ThermoFisher Scientific, cat #A-13262) for 1 h at 37° C. and fluorescence measured with a H1 synergy plate reader (BioTek).

[2] = Cytotoxicity assay (PrestoBlue) in HEp-2 cells; type: cell-based, human; details: human; HEp-2 cells, 48-hour incubation; max concentration tested
Procedure: as §1, §2

[3] = test system: recRSV-fireSMASh; test: microbe, parasite or virus in culture; type: cell-based; details: human respiratory syncytial virus, HAE, read-out: “F1” HAE C50 (first)
[4] = test system: recRSV-A2line19F-[mKate]; test: In vivo efficacy in RSV-infected mice (lung viral titer); details: for in vivo lung titer reduction in RSV-infected mice: oral gavage twice daily from 10 h post-infection, lungs 4.5 days after infection; for Lung viral load reduction (log10 TCID50/ml) relative to vehicle-treated: 50 mg/kg bid, therapeutic treatment 10 hours after infection, 4.5 days post-infection
Procedure: For efficacy studies, mice were randomly divided into groups (n=5) and infected intranasally with 5×10^5 TCID50 (25 μl per nare) of recRSV-A2line19F-[mKate] in PBS while under anesthesia with ketamine/xylazine. Treatment (compound or vehicle) was administrated at 10 h post-infection via oral gavage in a 200 μl suspension of 1% methylcellulose and administrated twice daily. Temperature and food consumption were monitored daily, body weight was determined twice daily. All animals were euthanized at 4.5 days after infection and lungs were harvested. To determine lung viral titers, lungs were weighted and homogenized with a bead beater in 300 μl PBS in 3 bursts of 20 seconds by 5-minute rest on ice after each cycle. Samples were clarified for 5 minutes at 4° C. and 20,000×g, supernatant aliquoted and stored at −80° C. before being titrated by median tissue culture infectious dose (TCID50) normalized per gram of lung tissue and per ml of lysate. RSV viral titers were determined using standard 50% tissue infective dose (TCID50) assay in HEp-2 cells and 96 well plates, with a Spearman and Karber based method using fluorescence for detection.
Mice were divided randomly into groups of 5, and infected intranasally with 500,000 TCID50 (25 μl/nare) of recRSV-mKate in Phosphate-Buffered Saline. Mice were anesthetized with ketamine/xylazine. Treatments were administrated via oral gavage in a 200 μl suspension of 1% Methylcellulose in water. Temperature and body weight were determined on a daily and twice-daily basis, respectively. Efficacy studies were terminated at peak viral replication at 4.5 days post-infection, mice were euthanized and lungs harvested and weighted. Lung viral titers were determined after tissue homogenization with a bead beater with 300 μl PBS (3 bursts of 30 seconds at 4° C., separated by 30-second rest at 4° C.). Homogenates were clarified (5 minutes at 4° C. and 20,000×g), aliquoted and stored at −80° C. until titration. Viral titers were determined by median tissue culture infectious dose (TCID50) titration, adjusted to weight (g) of lung tissue.

[5] = test system: recRSV-mKate; test: microbe, parasite or virus in culture; type: cell-based; details: 3D-HAE, progeny virus titers six days after infection, read-out: half-maximal effective concentration (EC50)
[6] = test system: recRSV-fireSMASh Y1631H; test: microbe, parasite or virus in culture; type: cell-based; details: human respiratory syncytial virus; recombinant recRSV-fireSMASh, HEp-2, RSV L Y1631H
[7] = test system: recRSV-fireSMASh; test: microbe, parasite or virus in culture; type: cell-based; details: human respiratory syncytial virus, HAE, read-out: “M4” HAE C50 (first)
[8] = 100 μM, previous studies; cited from earlier work
[9] = test system: 3D-HAE
[10] = test system: recRSV-fireSMASh H1632Q; test: microbe, parasite or virus in culture; type: cell-based; details: human respiratory syncytial virus; recombinant recRSV-fireSMASh, HEp-2, RSV L H1632Q
[11] = test system: “M4” HAE; details: “M4” donor primary HAE cells
[12] = test system: recRSV-mKate harboring L1502Q; type: cell-based; details: recRSV with LL1502Q relative to L WT
[13] = test system: “F1” HAE; details: “F1” donor primary HAE cells
[14] = test system: recRSV-fireSMASh L1502Q; test: microbe, parasite or virus in culture; type: cell-based; details: human respiratory syncytial virus; recombinant recRSV-fireSMASh, HEp-2, RSV L L1502Q
[15] = test system: recRSV-mKate; test: Lung histopathology of RSV-infected mice; details: 50 mg/kg initiated 12 hours after infection
Procedure: Mice were divided randomly into groups of 5, and infected intranasally with 500,000 TCID50 (25 μl/nare) of recRSV-mKate in Phosphate-Buffered Saline. Mice were anesthetized with ketamine/xylazine. Treatments were administrated via oral gavage in a 200 μl suspension of 1% Methylcellulose in water. Temperature and body weight were determined on a daily and twice-daily basis, respectively. Efficacy studies were terminated at peak viral replication at 4.5 days post-infection, mice were euthanized and lungs harvested and weighted.
For histopathology, mice were subjected to cervical dislocation 4.5 days after infection and lungs perfused with 10% NBF prior to extraction. Lungs were stored in 10% NBF for 24 hours, followed by incubation in 70% EtOH for two days and embedding into wax blocks, using a 21-hour alcohol-xylene-wax embedding sequence. Blocks were sectioned at ˜4 μm thickness, sections mounted onto microscopy slides, and stained with hematoxylin and eosin (H&E). Slides were examined by a board-certified veterinary pathologist, who was blinded to the treatment groups. Lesions were scored according to the following scale. […]

[16] = biological target: measles virus polymerase (Measles virus, UniProt P12576); details: found previously (45); cited from earlier work
Sequence of measles virus polymerase (P03422 whole entry): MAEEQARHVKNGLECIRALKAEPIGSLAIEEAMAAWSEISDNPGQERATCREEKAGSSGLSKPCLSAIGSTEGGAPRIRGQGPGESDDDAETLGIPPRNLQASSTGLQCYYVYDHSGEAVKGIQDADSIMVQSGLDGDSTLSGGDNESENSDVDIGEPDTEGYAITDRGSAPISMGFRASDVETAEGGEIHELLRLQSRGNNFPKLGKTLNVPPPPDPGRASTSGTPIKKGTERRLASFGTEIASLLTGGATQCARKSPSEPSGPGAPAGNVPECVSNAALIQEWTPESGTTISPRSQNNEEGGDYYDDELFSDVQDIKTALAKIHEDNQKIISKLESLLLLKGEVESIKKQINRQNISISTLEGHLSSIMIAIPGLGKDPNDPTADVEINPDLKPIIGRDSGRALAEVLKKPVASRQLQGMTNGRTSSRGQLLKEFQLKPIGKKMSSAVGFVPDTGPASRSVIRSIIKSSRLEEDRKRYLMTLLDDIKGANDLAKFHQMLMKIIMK
Sequence of measles virus polymerase (P12576 whole entry): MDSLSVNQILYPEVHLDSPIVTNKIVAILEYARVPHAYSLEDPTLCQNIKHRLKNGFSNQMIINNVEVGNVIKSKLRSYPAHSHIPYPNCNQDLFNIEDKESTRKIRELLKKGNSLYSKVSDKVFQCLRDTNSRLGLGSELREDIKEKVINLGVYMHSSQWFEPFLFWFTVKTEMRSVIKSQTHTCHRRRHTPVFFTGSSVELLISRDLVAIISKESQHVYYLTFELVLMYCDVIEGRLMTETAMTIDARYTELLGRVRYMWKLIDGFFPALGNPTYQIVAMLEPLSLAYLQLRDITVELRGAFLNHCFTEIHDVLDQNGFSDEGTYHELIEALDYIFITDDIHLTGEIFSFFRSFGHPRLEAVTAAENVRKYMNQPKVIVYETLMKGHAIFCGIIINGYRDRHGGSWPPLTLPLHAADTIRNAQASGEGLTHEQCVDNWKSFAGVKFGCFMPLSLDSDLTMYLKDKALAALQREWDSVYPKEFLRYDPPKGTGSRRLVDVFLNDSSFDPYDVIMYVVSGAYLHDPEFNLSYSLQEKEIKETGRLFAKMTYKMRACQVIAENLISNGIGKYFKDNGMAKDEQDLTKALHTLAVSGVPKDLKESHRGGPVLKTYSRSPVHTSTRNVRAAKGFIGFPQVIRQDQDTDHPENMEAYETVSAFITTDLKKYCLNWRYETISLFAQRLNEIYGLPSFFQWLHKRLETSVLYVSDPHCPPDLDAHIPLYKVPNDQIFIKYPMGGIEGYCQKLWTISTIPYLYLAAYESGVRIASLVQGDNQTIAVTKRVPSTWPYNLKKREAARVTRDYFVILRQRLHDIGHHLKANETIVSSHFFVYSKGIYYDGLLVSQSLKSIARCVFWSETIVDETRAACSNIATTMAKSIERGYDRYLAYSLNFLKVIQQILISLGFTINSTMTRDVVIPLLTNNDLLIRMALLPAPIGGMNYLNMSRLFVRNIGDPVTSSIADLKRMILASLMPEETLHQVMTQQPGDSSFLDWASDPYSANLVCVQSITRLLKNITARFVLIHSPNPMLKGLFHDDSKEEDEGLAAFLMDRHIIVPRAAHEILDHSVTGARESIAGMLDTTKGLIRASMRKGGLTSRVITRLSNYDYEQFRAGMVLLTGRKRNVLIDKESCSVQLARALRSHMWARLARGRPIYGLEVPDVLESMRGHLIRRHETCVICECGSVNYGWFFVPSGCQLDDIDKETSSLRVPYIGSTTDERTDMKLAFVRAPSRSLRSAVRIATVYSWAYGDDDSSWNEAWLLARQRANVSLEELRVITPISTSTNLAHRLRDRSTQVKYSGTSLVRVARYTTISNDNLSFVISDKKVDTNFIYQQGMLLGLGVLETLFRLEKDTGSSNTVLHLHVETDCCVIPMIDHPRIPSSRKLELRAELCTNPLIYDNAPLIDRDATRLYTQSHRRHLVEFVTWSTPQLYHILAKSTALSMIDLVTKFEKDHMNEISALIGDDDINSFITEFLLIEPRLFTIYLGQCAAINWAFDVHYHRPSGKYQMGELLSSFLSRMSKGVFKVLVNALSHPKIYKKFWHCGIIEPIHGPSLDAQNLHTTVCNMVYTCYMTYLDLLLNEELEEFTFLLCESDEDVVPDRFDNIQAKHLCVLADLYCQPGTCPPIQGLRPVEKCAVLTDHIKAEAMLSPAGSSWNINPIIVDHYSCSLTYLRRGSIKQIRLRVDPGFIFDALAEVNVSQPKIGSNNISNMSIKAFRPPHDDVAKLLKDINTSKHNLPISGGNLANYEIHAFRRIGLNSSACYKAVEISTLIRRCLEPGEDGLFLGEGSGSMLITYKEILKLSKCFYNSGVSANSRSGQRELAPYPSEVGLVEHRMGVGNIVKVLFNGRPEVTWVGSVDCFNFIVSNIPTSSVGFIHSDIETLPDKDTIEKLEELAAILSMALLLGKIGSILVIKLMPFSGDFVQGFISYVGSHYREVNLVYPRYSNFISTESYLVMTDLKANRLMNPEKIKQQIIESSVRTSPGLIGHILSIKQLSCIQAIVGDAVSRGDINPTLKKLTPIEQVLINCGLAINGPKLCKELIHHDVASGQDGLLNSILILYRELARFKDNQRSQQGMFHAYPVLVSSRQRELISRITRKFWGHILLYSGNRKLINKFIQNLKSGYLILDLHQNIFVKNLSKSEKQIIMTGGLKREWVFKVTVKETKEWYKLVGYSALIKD

[17] = orally 50 mg/kg b.i.d., starting 12 hours after infection, compared to vehicle-treated

Row | Structure (SMILES) | HEp-2 C50 (second) [1] [µM] | EC50 [3] [nM] | in vivo lung titer reduction in RSV-infected mice ([4]; 50 mg/kg) | EC50 [7] [nM] | “M4” HAE C50 (second) [11] [µM] | “F1” HAE C50 (second) [13] [µM] | reduction in lung viral load [4, 17] | CC50 [1] [nM] | Lung viral load reduction (log10 TCID50/ml) relative to vehicle-treated [4] [log10 TCID50/ml] | further results
1 | COc1ccc(Cn2c3cc(=O)n(Cc4cccc(Cl)n4)c(C)c3c(=O)n2-c2ccccn2)cc1 [AVG-233] | 50 | 360 | 50 mg/kg: −0.44 log 10 | 110 | 45 | 45 |  |  |  | cytotoxicity [1]: very low cytotoxicity; CC50 at 48 h [2]: > 45000 nM; EC50 ([5]; human respiratory syncytial virus, 144 h): 70 nM; EC50 [6]: 2190 nM; cytotoxicity [8]: well-tolerated without any signs of cytotoxicity; effect on tissue organization and tight junction integrity ([9]; 200 μM, continued multi-day exposure, ZO-1 immunostaining and TEER): no negative effect on tissue organization and tight junction integrity; effect on epithelium integrity ([9]; basolateral 5 μM, RSV-infected, 3 d.p.i.): without detectable negative effect; EC50 [10]: 4420 nM; increase in EC90 [12]: > 2000 fold; EC50 [14]: > 100000 nM
2 | COc1c(F)c(F)c(Cn2c3cc(=O)n(Cc4cccc(C(F)(F)F)n4)c(C)c3c(=O)n2-c2ncc(F)cc2F)c(F)c1F [AVG-388] | 10 | 130 | 50 mg/kg: −1.3 log 10 | 150 | 10 | 10 | 1.3 (±0.25) log 10 TCID50/ml |  |  | cytotoxicity [1]: very low cytotoxicity; CC50 at 48 h [2]: > 45000 nM; in vivo lung titer reduction in RSV-infected mice ([4]; 150 mg/kg): 150 mg/kg: −1.9 log 10; adverse effects (bodyweight and temperature) ([4]; orally 150 mg/kg b.i.d.): without any signs of adverse effects; reduction in lung viral load ([4]; orally 150 mg/kg b.i.d.): 1.9 (±0.23) log 10 TCID50/ml; disease progression to viral pneumonia (histopathology) [15]: prevented disease progression to viral pneumonia; vasculitis and perivascular cuffing (histopathology) [15]: Only one animal of the AVG-388 group showed mild vasculitis and perivascular cuffing; EC50 [6]: 2720 nM; EC50 [10]: 4810 nM; EC50 [14]: > 100000 nM
3 | COc1c(F)c(F)c(Cn2c3cc(=O)n(Cc4cccc(Cl)n4)c(C)c3c(=O)n2-c2ccccn2)c(F)c1F [AVG-389] | 5 | 160 |  | 70 | 45 | 45 |  |  |  | 
4 | COc1c(F)c(F)c(Cn2c3cc(=O)n(Cc4cccc(Cl)n4)c(C)c3c(=O)n2-c2ncc(F)cc2F)c(F)c1F [AVG-390] | 45 | 390 | 50 mg/kg: −0.50 log 10 | 250 | 45 | 45 | slightly lower antiviral effect | > 45000 | −0.5 | 
5 | COc1ccc(Cn2c3cc(=O)n(Cc4cccc(Cl)n4)c(C)c3c(=O)n2-c2ncc(F)cc2F)cc1 [AVG-391] | 45 | 350 |  | 300 | 45 | 45 |  |  |  | 
6 | COc1ccc(Cn2c3cc(=O)n(Cc4cccc(C(F)(F)F)n4)c(C)c3c(=O)n2-c2ncc(F)cc2F)cc1 [AVG-392] | 45 | 920 |  | 530 | 45 | 45 |  |  |  | 
7 | COc1c(F)c(F)c(Cn2c3cc(=O)n(Cc4cccc(C(F)(F)F)n4)c(C)c3c(=O)n2-c2ccccn2)c(F)c1F [AVG-435] | 5 |  | 50 mg/kg: −0.44 log 10 |  |  |  | did not observe as much benefit | > 5000 | −0.44 | 
8 | COc1ccc(Cn2c3cc(=O)n(Cc4cccc(C(F)(F)F)n4)c(C)c3c(=O)n2-c2ccccn2)cc1 [AVG-436] | 5 |  | 50 mg/kg: −0.89 log 10 |  |  |  | 0.89 (±0.14) log 10 TCID50/ml | > 5000 | −0.89 | 
9 | Cc1c2c(=O)n(-c3ccccn3)n(Cc3c(Cl)cccc3Cl)c2cc(=O)n1Cc1cccc(C(F)(F)F)n1 [AVG-445] | 5 |  | 50 mg/kg: −1.1 log 10 |  |  |  | 1.1 (±0.16) log 10 TCID50/ml | > 5000 | −1.1 | in vivo lung titer reduction in RSV-infected mice ([4]; 100 mg/kg): 100 mg/kg: −1.9 log 10
10 | Cc1c2c(=O)n(-c3ccccn3)n(Cc3c(Cl)cccc3Cl)c2cc(=O)n1Cc1cccc(C(F)(F)F)c1 [AVG-446] |  |  | 50 mg/kg: −0.61 log 10 |  |  |  |  |  |  | CC50 at 48 h [2]: > 5000 nM; in vivo lung titer reduction in RSV-infected mice ([4]; 100 mg/kg): 100 mg/kg: −1.2 log 10
11 | Cn1nc(C(F)(F)F)cc1C(=O)Nc1ccc(S(=O)(=O)N2CCCC[C@H]2CCN2CCOCC2)cc1 [ERDRP-0519] |  |  |  |  |  |  |  |  |  | phosphodiester bond formation [16]: completely blocks all phosphodiesterbond formation
12 | O=c1nc(NO)ccn1[C@@H]1O[C@H](CO)[C@@H](O)[C@H]1O [NHC, reference compound] |  |  |  |  |  |  |  |  |  | EC50 [5]: 50 nM
